Measurements published in patent US6492329B1, “Cytokine and hemopoietic factor endogenous production enhancer and methods of use thereof” (Novelos Therapeutics, Inc., priority 1995, dated 2002).

Columns and labels:
[1] = tested on: e-ras cell line (REF transformed with E1A and ras-oncogene); assay: Number of clones of e-ras cells throughout 72-hr incubation; assay type: cell-based, rat
Description: (§1) To this end, these substances had been incubated for 72 hours with cells of rat embrional fibroblasts (REF) and the same cells, transformed with adenoviral E1A gene in complementation with ras-oncogene (e-ras cell line). Subsequent evaluation of the cellularity of experimental samples was carried out by counting the quantity of cell per milliliter (for REF cell line) or clones in dish (for e-ras cell line).
(§2) Cells were cultivated on DMEM medium supplemented with 10% fetal calf serum and […] gentamicin. Cultivation was carried out in Petri dishes.
(§3) E-ras cells were seeded at a cell density of 300 cells per 5 cm dish. 7 days after growth of e-ras cells had been started the quantity of clones was evaluated and the test articles were added into the dishes.
(§4) For the test-system for estimation of apoptosis regulation UV-induced cell death was triggered in a dose of 4 Dj. Test articles were added immediately after irradiation. Then, the quantity of cell per milliliter (for REF cell line) or clones in dish (for e-ras cell line) were monitored every 24 hours. For determination of DNA-fragmentation the electrophoresis in agarose gel was used at standard settings.

[2] = tested on: rat embrional fibroblasts (REF); assay: Number of REF cells throughout 72-hr incubation; assay type: cell-based
Description: as §1, §2
(§5) REF cells was cultivated with initial density of 800 000 cell per mL, evaluation of the cellularity was performed at 0, 24, 48 and 72 hours of incubation with the test articles.
as §4

[3] = tested on: leukemia P388 cells; assay: Leukemia P388 in mice: ascitic fluid and survival (Example 14); conditions: for Accumulation of ascitic (weight gain, %): leukemia P388; for Mean survival time: mice inoculated with leukemia P388 cells
Description: (§6) An influence of 7 day course of test article daily administration was studied in respect of tumor progression, which was estimated using the two integral indices: pace of mouse weight gain due to accumulation of ascitic fluid, and by animal mean survival time after inoculation.
(§7) The study was carried out on DBA/2 mice weighing 18-21 g. First, tumor cell passage was performed using 6 animals for each cell line. For this, cells kept at the temperature of the liquid nitrogen were de-frozen and adjusted to the concentration of 5×10^6 cells/mL by sterile Hanks' solution. Then, 6 mice were intra peritoneally inoculated with 0.2 mL of each line cellular suspension.
(§8) Ascitic fluid was collected 6 days after the inoculation with L1210 cells, 8 days after the inoculation with P388 ones and 18 days after inoculation with Erlich adenocarcinoma cells. Thus obtained, the samples of passaged tumor cells were used for the main experiments. The fluid liquid was dissolved by sterile Hanks' solution so that cell concentration be 5×10^6 cells/mL for P388 cells and Erlich adenocarcinoma cells, 5×10^5 cells/mL for L1210 cells.
(§9) Eleven groups of animals with no less than 15 mice each were formed for experiments with either tumor cell line. Mice were inoculated with 0.2 mL of resultant cell suspensions per mouse (10^6 P388 and Erlich adenocarcinoma cells/mouse, and 10^5 L1210 cells/mouse). 24 hours after the tumor cells inoculation, animals were given the first injections of the test articles or vehicles. The test article injections were made daily till the 14th day of the experiment or till the animal death. The volume of solutions injected comprised 0.01 mL/g body weight.
(§10) #1—intact animals receiving imitation of tumor cell inoculation (injection of normal saline) which further were treated with normal saline throughout the entire experiment;
(§11) #2—control animals, inoculated with tumor cells, which further were treated with test article vehicle (normal saline);

[4] = tested on: leukemia P388 cells; assay: Leukemia P388 in mice: serum cytokines, ascitic fluid, survival (Example 5); conditions: for Accumulation of ascitic fluid (weight gain) / Concentration in serum: IFNα / Concentration in serum: IL-1 / Concentration in serum: IL-2 / Concentration in serum: IL-6 / Concentration in serum: TNFα: P388 mice
Description: (§12) An influence of 7 day course of test article daily administration was studied in respect of variations of serum cytokine levels (IL-1, IL-2, IL-6, IFNα, TNF). In parallel, the tumor progression was estimated using the two integral indices: pace of mouse weight gain due to accumulation of ascitic fluid, and by animal mean survival time after inoculation.
(§13) The study was carried out on DBA/2 mice weighing 18-21 g. First, tumor cell passage was performed using 6 animals for each cell line. For this, cells kept at the temperature of the liquid nitrogen were de-frozen and adjusted to the concentration of 5×10^6 cells/mL by sterile Hanks' solution. Then, 6 mice were intraperitoneally inoculated with 0.2 mL of each line cellular suspension.
(§14) Ascitic fluid was collected 6 days after the inoculation with L1210 cells and 8 days after the inoculation with P388 ones. Thus obtained, the samples of passaged tumor cells were used for the main experiments. The fluid liquid was dissolved by sterile Hanks' solution so that cell concentration be 5×10^6 cells/mL for P388 cells and 5×10^5 cells/mL for L1210 cells.
(§15) Nine groups of animals with no less than 15 mice each were formed for experiments with either tumor cell line. Mice were inoculated with 0.2 mL of resultant cell suspensions per mouse (10^6 P388 cells/mouse, and 10^5 L1210 cells/mouse). 24 hours after the tumor cells inoculation. animals were given the first injections of the test articles or vehicles. The test article injections were made daily till the 14th day of the experiment or until the animal's death. The volume of solutions injected comprised 0.01 mL/g body weight.
as §10, §11

[5] = tested on: leukemia L1210 cells; assay: Leukemia L1210 in mice: serum cytokines, ascitic fluid, survival (Example 5); conditions: for Accumulation of ascitic fluid (weight gain) / Concentration in serum: IFNα / Concentration in serum: IL-1 / Concentration in serum: IL-2 / Concentration in serum: IL-6 / Concentration in serum: TNFα: L1210 mice
Description: as §12, §13, §14, §15, §10, §11

[6] = tested on: rat embrional fibroblasts (REF) after UV-irradiation; assay: Number of REF cells after UV-irradiation; assay type: cell-based
Description: as §1, §2, §5, §4

[7] = tested on: e-ras cells after UV-irradiation; assay: Number of clones of e-ras cells after UV-irradiation; assay type: cell-based, rat
Description: as §1, §2, §3, §4

[8] = tested on: normal human lymphocytes; assay: Proliferation/apoptosis of normal human lymphocytes (cell number per well, flow cytofluorometry); assay type: cell-based
[9] = tested on: HL-60 cells; assay: Proliferation/apoptosis of HL-60 tumor cells (cell number per well, flow cytofluorometry)
Description: Subsequent evaluation of the cell cycle parameters was carried out by the flow cytofluorometry technique.
A mononuclear fraction of blood leukocytes were obtained by centrifugation in gradient of fikoll-metrizoat (Histopaque, Sigma). […] Cell viability was estimated by the Trypan blue exclusion method, then the cell suspension was placed into wells of 96-well microtiter plates—200,000 cells per well. […] Cultivation was carried out in closed flasks, the medium volume was 12 mL, it was changed every four days by centrifugation. The nature of the cells growth was suspensive. […] 50 μL of each test solution were added to one or the other cell culture and thereafter cells were cultivated for 24-96 hours. Then, they were tested by the flow cytofluorometry to estimate DNA content in the cell nuclei. In case of apoptosis-like cellular death, the portion of cell nuclei with normal content of DNA became reduced, while the portion of cell nuclei containing abnormally small DNA quantity became larger.
The analysis procedure was the following: after incubation completion, cells were centrifuged and transferred to a standard phosphate isotonic buffer pH 7.4, containing RNA-ase A (20 μg/mL), ethidium bromide (fluorometric indicator for double stranded nucleic acid. 10 μg/mL) and MgCl2 (5 mM). After the cells were disintegrated by nonionic detergent Triton X-100 (final concentration 0.1%). The suspension of cell nuclei thus obtained was analyzed by flow cytofluorometry with an argon laser as a source of light (wave length 488 nm). The red fluorescence due to DNA bound ethidium bromide was taken to be the measure of DNA content in the cell nuclei.

[10] = tested on: leukemia L1210 cells; assay: Leukemia L1210 in mice: ascitic fluid and survival (Example 14); conditions: for Accumulation of ascitic (weight gain, %): leukemia L1210; for Mean survival time: mice inoculated with leukemia L1210 cells
Description: as §6, §7, §8, §9, §10, §11

[11] = tested on: Erlich adenocarcinoma cells; assay: Erlich adenocarcinoma in mice: ascitic fluid and survival (Example 14); conditions: for Accumulation of ascitic (weight gain, %): Erlich adenocarcinoma; for Mean survival time: mice inoculated with Erlich adenocarcinoma cells
Description: as §6, §7, §8, §9, §10, §11

NCCSSCCN [0.1% cystamine, 2,2′-Dithio-bis[ethylamine]]
number of clones of e-ras cells (M ± m) ([1]; 0 hours of incubation): 276 ± 4 | number of clones of e-ras cells (M ± m) ([1]; 24 hours of incubation): 281 ± 4 | number of clones of e-ras cells (M ± m) ([1]; 48 hours of incubation): 271 ± 6 | number of clones of e-ras cells (M ± m) ([1]; 72 hours of incubation): 258 ± 3 | number of REF cells (M ± m) ([2]; 0 hours of incubation): 822 ± 14 × 10^3 cells | number of REF cells (M ± m) ([2]; 24 hours of incubation): 1523 ± 11 × 10^3 cells | number of REF cells (M ± m) ([2]; 48 hours of incubation): 2486 ± 34 × 10^3 cells | number of REF cells (M ± m) ([2]; 72 hours of incubation): 5048 ± 126 × 10^3 cells | Accumulation of ascitic (weight gain, %) ([3]; number of injection 0): 0.4 ± 0.3% | Accumulation of ascitic (weight gain, %) ([3]; number of injection 3): 5.2 ± 0.6% | Accumulation of ascitic (weight gain, %) ([3]; number of injection 7): 18.8 ± 1.1% | Mean survival time [3]: 20.2 ± 0.3 | Accumulation of ascitic fluid (weight gain) ([4]; 0 injections): 0.67 ± 0.22% | Concentration in serum: IFNα ([4]; 0 injections): 107 ± 8.06 pg/mL | Concentration in serum: IL-1 ([4]; 0 injections): 30.0 ± 4.02 pg/mL | Concentration in serum: IL-2 ([4]; 0 injections): 14.9 ± 2.05 pg/mL | Concentration in serum: IL-6 ([4]; 0 injections): 72.7 ± 9.10 pg/mL | Concentration in serum: TNFα ([4]; 0 injections): 80.5 ± 7.14 pg/mL | Accumulation of ascitic fluid (weight gain) ([4]; 3 daily injections): 6.0 ± 0.49% | Concentration in serum: IFNα ([4]; 3 daily injections): 216. ± 19.08 pg/mL | Concentration in serum: IL-1 ([4]; 3 daily injections): 41.5 ± 5.81 pg/mL | Concentration in serum: IL-2 ([4]; 3 daily injections): 15.25 ± 1.80 pg/mL | Concentration in serum: IL-6 ([4]; 3 daily injections): 184.0 ± 15.6 pg/mL | Concentration in serum: TNFα ([4]; 3 daily injections): 204. ± 16.1 pg/mL | Accumulation of ascitic fluid (weight gain) ([4]; 7 daily injections): 19.9 ± 1.67% | Concentration in serum: IFNα ([4]; 7 daily injections): 315. ± 9.80 pg/mL | Concentration in serum: IL-1 ([4]; 7 daily injections): 22.3 ± 3.0 pg/mL | Concentration in serum: IL-2 ([4]; 7 daily injections): 20.18 ± 2.50 pg/mL | Concentration in serum: IL-6 ([4]; 7 daily injections): 170.6 ± 14.3 pg/mL | Concentration in serum: TNFα ([4]; 7 daily injections): 220. ± 19.1 pg/mL | Mean survival time ([4]; mice inoculated with leukemia P388 cells, daily injections till day 14 or death): 9.93 ± 0.27 | Accumulation of ascitic fluid (weight gain) ([5]; 0 injections): 0.47% | Concentration in serum: IFNα ([5]; 0 injections): 115.0 pg/mL | Concentration in serum: IL-1 ([5]; 0 injections): 36.0 pg/mL | Concentration in serum: IL-2 ([5]; 0 injections): 16.9 pg/mL | Concentration in serum: IL-6 ([5]; 0 injections): 63.0 pg/mL | Concentration in serum: TNFα ([5]; 0 injections): 88.6 pg/mL | Accumulation of ascitic fluid (weight gain) ([5]; 3 daily injections): 5.93% | Concentration in serum: IFNα ([5]; 3 daily injections): 200. pg/mL | Concentration in serum: IL-1 ([5]; 3 daily injections): 47.50 pg/mL | Concentration in serum: IL-2 ([5]; 3 daily injections): 17.30 pg/mL | Concentration in serum: IL-6 ([5]; 3 daily injections): 70.0 pg/mL | Concentration in serum: TNFα ([5]; 3 daily injections): 185.0 pg/mL | Accumulation of ascitic fluid (weight gain) ([5]; 7 daily injections): 21.17% | Concentration in serum: IFNα ([5]; 7 daily injections): 137.0 pg/mL | Concentration in serum: IL-1 ([5]; 7 daily injections): 28.0 pg/mL | Concentration in serum: IL-2 ([5]; 7 daily injections): 22.8 pg/mL | Concentration in serum: IL-6 ([5]; 7 daily injections): 155.0 pg/mL | Concentration in serum: TNFα ([5]; 7 daily injections): 213.0 pg/mL | Mean survival time ([5]; mice inoculated with leukemia L1210 cells, daily injections till day 14 or death): 9.53 ± 0.18 | number of REF cells after UV-irradiation (M ± m) ([6]; 0 hours): 822 ± 14 × 10^3 cells | number of REF cells after UV-irradiation (M ± m) ([6]; 24 hours): 523 ± 11 × 10^3 cells | number of REF cells after UV-irradiation (M ± m) ([6]; 48 hours): 246 ± 34 × 10^3 cells | number of REF cells after UV-irradiation (M ± m) ([6]; 72 hours): 208 ± 26 × 10^3 cells | number of clones of e-ras cells after UV-irradiation (M ± m) ([7]; 0 hours): 276 ± 4 | number of clones of e-ras cells after UV-irradiation (M ± m) ([7]; 24 hours): 181 ± 4 | number of clones of e-ras cells after UV-irradiation (M ± m) ([7]; 48 hours): 111 ± 6 | number of clones of e-ras cells after UV-irradiation (M ± m) ([7]; 72 hours): 108 ± 3 | number of normal lymphocytes per well ([8]; 24 hours incubation): 30 ± 2 × 10^4 cells | number of normal lymphocytes per well ([8]; 48 hours incubation): 72 ± 4 × 10^4 cells | number of normal lymphocytes per well ([8]; 72 hours incubation): 122 ± 9 × 10^4 cells | number of normal lymphocytes per well ([8]; 96 hours incubation): 196 ± 11 × 10^4 cells | number of HL-60 cells per well ([9]; 24 hours incubation): 112 ± 10 × 10^4 cells | number of HL-60 cells per well ([9]; 48 hours incubation): 182 ± 9 × 10^4 cells | number of HL-60 cells per well ([9]; 72 hours incubation): 465 ± 11 × 10^4 cells | number of HL-60 cells per well ([9]; 96 hours incubation): 618 ± 19 × 10^4 cells | Accumulation of ascitic (weight gain, %) ([10]; number of injection 0): 0.42 ± 0.3% | Accumulation of ascitic (weight gain, %) ([10]; number of injection 3): 8.2 ± 0.6% | Accumulation of ascitic (weight gain, %) ([10]; number of injection 7): 24.8 ± 2.1% | Mean survival time [10]: 10.2 ± 0.8 | Accumulation of ascitic (weight gain, %) ([11]; number of injection 0): 0.6 ± 0.2% | Accumulation of ascitic (weight gain, %) ([11]; number of injection 3): 9.2 ± 0.8% | Accumulation of ascitic (weight gain, %) ([11]; number of injection 7): 25.8 ± 1.7% | Mean survival time [11]: 10.2 ± 0.8

C[S+](C)[O-] [7% DMSO]
number of clones of e-ras cells (M ± m) ([1]; 0 hours of incubation): 268 ± 11 | number of clones of e-ras cells (M ± m) ([1]; 24 hours of incubation): 271 ± 2 | number of clones of e-ras cells (M ± m) ([1]; 48 hours of incubation): 268 ± 8 | number of clones of e-ras cells (M ± m) ([1]; 72 hours of incubation): 243 ± 6 | number of REF cells (M ± m) ([2]; 0 hours of incubation): 801 ± 12 × 10^3 cells | number of REF cells (M ± m) ([2]; 24 hours of incubation): 1420 ± 17 × 10^3 cells | number of REF cells (M ± m) ([2]; 48 hours of incubation): 2651 ± 36 × 10^3 cells | number of REF cells (M ± m) ([2]; 72 hours of incubation): 5298 ± 39 × 10^3 cells | Accumulation of ascitic (weight gain, %) ([3]; number of injection 0): 0.5 ± 0.1% | Accumulation of ascitic (weight gain, %) ([3]; number of injection 3): 5.4 ± 1.4% | Accumulation of ascitic (weight gain, %) ([3]; number of injection 7): 19.6 ± 1.6% | Mean survival time [3]: 20.6 ± 1.8 | number of REF cells after UV-irradiation (M ± m) ([6]; 0 hours): 801 ± 12 × 10^3 cells | number of REF cells after UV-irradiation (M ± m) ([6]; 24 hours): 420 ± 17 × 10^3 cells | number of REF cells after UV-irradiation (M ± m) ([6]; 48 hours): 251 ± 36 × 10^3 cells | number of REF cells after UV-irradiation (M ± m) ([6]; 72 hours): 208 ± 39 × 10^3 cells | number of clones of e-ras cells after UV-irradiation (M ± m) ([7]; 0 hours): 268 ± 11 | number of clones of e-ras cells after UV-irradiation (M ± m) ([7]; 24 hours): 171 ± 2 | number of clones of e-ras cells after UV-irradiation (M ± m) ([7]; 48 hours): 108 ± 8 | number of clones of e-ras cells after UV-irradiation (M ± m) ([7]; 72 hours): 103 ± 6 | Accumulation of ascitic (weight gain, %) ([10]; number of injection 0): 0.51 ± 0.1% | Accumulation of ascitic (weight gain, %) ([10]; number of injection 3): 6.4 ± 1.4% | Accumulation of ascitic (weight gain, %) ([10]; number of injection 7): 23.6 ± 2.6% | Mean survival time [10]: 10.2 ± 0.8 | Accumulation of ascitic (weight gain, %) ([11]; number of injection 0): 0.5 ± 0.2% | Accumulation of ascitic (weight gain, %) ([11]; number of injection 3): 11.4 ± 1.1% | Accumulation of ascitic (weight gain, %) ([11]; number of injection 7): 24.6 ± 2.2% | Mean survival time [11]: 10.3 ± 1.8

NCCSSCCNC(=O)CNC(=O)C(CSSCC(NC(=O)CCC(N)C(=O)O)C(=O)NCC(=O)O)NC(=O)CCC(N)C(=O)O (stereo not shown) [S-thioeethylamine-GSSG + normal saline]
Accumulation of ascitic (weight gain, %) ([3]; number of injection 0): 0.7 ± 0.2% | Accumulation of ascitic (weight gain, %) ([3]; number of injection 3): 2.1 ± 0.4% | Accumulation of ascitic (weight gain, %) ([3]; number of injection 7): 8.2 ± 1.2% | Mean survival time [3]: 28.2 ± 0.8
